Biological target: T1, human intermediate-conductance Ca2+-activated K+ channels (hIK channels) (Homo sapiens, UniProt O15554)
T1 construct: expressed in transfected cells
Test: Block of IK channels, whole-cell patch-clamp
Format: cell-based
Conditions: hIK cloned from human placenta, stably expressed in HEK293 cells; Ki = koff/kon from kinetics of the block
Protocol: In this example the ability of the compounds of the invention to inhibit human intermediate-conductance Ca^2+-activated K^+ channels (hIK channels) is examined.
hIK channels have been cloned from human placenta and stably expressed in HEK293 cells. The ionic current through the channels is recorded in the whole-cell mode of the patch-clamp technique.
A Ki value is calculated from the kinetics of the block.
The inhibition of the current is assumed to occur by a simple drug (D)−receptor (R) interaction after the following scheme: [drawing 3]
This is a simple bimolecular reaction, which integrated under non-equalibrium conditions are described by the equation: It=I0*(1−(C/C+(koff/kon)))*(1−exp(−(C* kon+koff)*t))) • wherein, • It=current at time t in nA • koff=off-rate in s^−1 • I0=basal current in nA • kon=on-rate in M^−1s^−1 • C=drug concentration in μM
By using the equation above, a fit to the time-course of the decrease in current yields the values koff and kon. Ki equals the ratio koff/kon, and Ki is the test value to be reported. At t=∞ (equalibrium) the equation simplifies to the Michaelis-Menten equation with Ki=IC50.

Ki | SMILES
2200 nM | N#CC(CC(=O)O)(c1ccc(F)cc1)c1ccc(F)cc1 [Compound 2, 3-Cyano-3,3-bis-(4-fluoro-phenyl)-propionic acid]
1400 nM | CCOC(=O)CCC(C#N)(c1ccc(F)cc1)c1ccc(F)cc1 [Compound 4, Ethyl 4-cyano-4,4-bis-(4-fluoro-phenyl) butyrate]
530 nM | NC(CSC(c1ccc(F)cc1)(c1ccc(F)cc1)c1ccccc1F)=NO [Compound 6, 2-[(2-Fluoro-phenyl)-bis-(4-fluoro-phenyl)-methanesulfanyl]-N-hydroxy acetamidine]
65 nM | N#CC(Cc1ccccn1)(c1ccc(F)cc1)c1ccc([N+](=O)[O-])c(C(F)(F)F)c1 (stereo not shown) [Compound 8, 2-(4Fluoro-phenyl)-2-(4-nitro-3-trifluoromethyl-phenyl)-3-pyridin-2-yl-propionitrile]

— patent publication US20070027205A1, “Diarylmethyl derivatives as potassium channel modulators” (priority 2003, published 2007)
